# Reference: US20030176390A1, “Methods of treating insulin resistance syndrome and diabetes” (priority 2001, published 2003)
# System: rat adipocytes
# Assay: In vitro lipolysis assay (antilipolytic activity in rat adipocytes)
# Type: cell-based
# Details: Rattus norvegicus, Adipocyte, 1 h; norepinephrine-stimulated lipolysis, glycerol assayed, 60 min; read-out: Lipo ec50
# Description: Determination of Antilipolytic Activity in Rat Adipocytes
# Isolation of Adipocytes from Epididymal Fat Pads
# Adipose tissue is removed from anesthetized rats and rinsed twice in incubation medium (2.09 g sodium bicarbonate and 0.04 g EDTA, disodium salt, in 1 L Krebs buffer). Each rat (300-350 g) yields approximately 4 mL of adipose tissue. The adipose tissue (35 mL) is cut into small pieces with scissors and washed with incubation medium (50 mL). The mixture is poured into the barrel of a 50 mL syringe to which is attached a short piece of clamped tubing instead of a needle. The aqueous phase is allowed to drain. A second wash with incubation medium is passed through the syringe. The tissue is added to 50 mL of collagenase solution (collagenase (90 mg), bovine serum albumin (BSA) (500 mg), and 0.1 M calcium chloride solution (1 mL), in incubation medium (50 mL)) in a 1 L bottle. The mixture is shaken in an environmental at 37° C. for about 60 minutes under an atmosphere of 95% oxygen/5% carbon dioxide to effect digestion of the tissue. The dispersed cells are poured through 2 layers of cheese cloth into a 100 mL plastic beaker. The undigested clumps in the cloth are rinsed once with incubation medium (20 mL). The cells in the beaker are centrifuged in 2 plastic tubes for 30 seconds at room temperature at 300 rpm. The aqueous phase is aspirated from beneath the loosely packed layer of floating fat cells and discarded. The adipocytes are gently poured into a 250 mL plastic beaker containing 100 mL of rinse solution (1 g BSA per 100 mL incubation medium). After gentle stirring the centrifugation step is repeated. Another wash with rinse solution follows. The cells are pooled and their volume is estimated with a graduated cylinder. The adipocytes are diluted in twice their volume of assay buffer (incubation medium (120 mL), BSA (1.2 g), pyruvic acid (13 mg)).
# The assay is performed in 20 mL plastic scintillation vials and the total assay volume is 4.2 mL. Assay buffer (2.5 mL), diluted adipocytes (1.5 mL), and a solution of the compound to be tested (12.3 μL) adenosine agonist (12.3 μl; varying concentration) is incubated in the environmental shaker for 15 minutes, then the reaction is started with norepinephrine solution (41.2 μL) (10 nM, in a carrier solution containing water (100 mL), BSA (4 mg), and 0.1 M EDTA (20 μL))and adenosine deaminase (1 μg/mL, 41.2 μl). After sixty minutes in the shaker the reaction is terminated by putting the vials on ice. […] The hard lipid layer is removed by aspiration and the aqueous layer is assayed for glycerol (400 μl of sample). The positive control is done in the absence of any adenosine agonist, substituting water in place of the solution to be tested.
row,EC50 [nM],SMILES
1,2.8,"O=[N+]([O-])c1ccc(N2CC[C@H](Nc3ncnc4c3ncn4[C@@H]3C[C@H](CO)[C@@H](O)[C@H]3O)C2)cc1 [Example 37, (1R,2S,3R,5R)-5-hydroxymethyl-3-[6-[1-(4-nitrophenyl)-pyrrolidin-3(S)-ylamino]-purin-9-yl]cyclopentane-1,2-diol]"
2,2.82,"O=[N+]([O-])c1ccc(N2CCC(Nc3ncnc4c3ncn4[C@@H]3C[C@H](CO)[C@@H](O)[C@H]3O)C2)cc1 (stereo partly drawn) [Example 7, (1R,2S,3R,5R)-5-hydroxymethyl-3-[6-[1-(4-nitrophenyl)pyrrolidin-3-ylamino]-purin-9-yl]cyclopentane-1,2-diol]"
3,30,"OC[C@H]1C[C@@H](n2cnc3c(N[C@H]4CCN(c5ccc6cc(Br)ccc6n5)C4)ncnc32)[C@H](O)[C@@H]1O [Example 42, (1R,2S,3R,5R)-3-[6-[1-(6-bromoquinolin-2-yl)pyrrolidin-3(S)-ylamino]-purin-9-yl]-5-hydroxymethylcyclopentane-1,2-diol]"

# System: not given
# Assay: not given
# Details: not given
row,melting point,SMILES
1,206 to 212 °C (dec.),"CC[C@@H](C)NC(=O)[C@H]1C[C@@H](n2cnc3c(N[C@H]4CCN(c5ccc(C(F)(F)F)cn5)C4)ncnc32)[C@H](O)[C@@H]1O [Example 62, (1S,2R,3S,4R)-2,3-dihydroxy-4-{6-[1-(5-trifluoromethyl-pyridin-2-yl)-pyrrolidin-3(S)-ylamino]-purin-9-yl}-cyclopentanecarboxylic acid-1(R)-methylpropylamide]"
2,193 to 195 °C,"OC[C@H]1O[C@@H](n2cnc3c(N[C@H]4CCN(c5ccccn5)C4)ncnc32)[C@H](O)[C@@H]1O [Example 15, (2R,3R,4S,5R)-5-hydroxymethyl-2-[6-(1-pyridin-2-ylpyrrolidin-3(S)-ylamino]-purin-9-yl]tetrahydrofuran-3,4-diol]"
3,100 to 102 °C,"OC[C@H]1C[C@@H](n2cnc3c(N[C@H]4CCN(Cc5ccccc5)C4)ncnc32)[C@H](O)[C@@H]1O [Example 59, (1R,2S,3R,5R)-3-[6-(1-benzyl-pyrrolidin-3(S)-ylamino)purin-9-yl]-5-hydroxymethylcyclopentane-1,2-diol]"
4,198 to 200 °C,"COC[C@H]1O[C@@H](n2cnc3c(N[C@H]4CCN(c5ccc(C(F)(F)F)cn5)C4)ncnc32)[C@H](O)[C@@H]1O [Example 23, (2R,3R,4S,5R) -5-methoxymethyl-2-[6-[1-(5-trifluoromethylpyridin-2-yl)-pyrrolidin-3(S)-ylamino]-purin-9-yl]tetrahydrofuran-3,4-diol]"
5,126 to 128 °C,"O=[N+]([O-])c1ccc(N2CCC(Nc3ncnc4c3ncn4[C@@H]3C[C@H](CO)[C@@H](O)[C@H]3O)CC2)cc1 [Example 25, (1R,2S,3R,5R)-5-hydroxymethyl-3-[6-[1-(4-nitrophenyl)piperidin-4-ylamino]-purin-9-yl]cyclopentane-1,2-diol]"
6,95 to 96 °C,"COC[C@H]1C[C@@H](n2cnc3c(N[C@H]4CCN(Cc5ccccc5)C4)ncnc32)[C@H](O)[C@@H]1O [Example 60, (1R,2S,3R,5R)-3-[6-(1-benzyl-pyrrolidin-3(S)-ylamino)purin-9-yl]-5-methoxymethylcyclopentane-1,2-diol]"
7,164 to 166 °C,"Cc1ccc(N2CC[C@H](Nc3ncnc4c3ncn4[C@@H]3O[C@H](CO)[C@@H](O)[C@H]3O)C2)nc1 [Example 17, (2R,3R,4S,5R)-5-hydroxymethyl-2-[6-[1-(5-methylpyridin-2-yl)-pyrrolidin-3(S)-ylamino]-purin-9-yl]tetrahydrofuran-3,4-diol]"
8,187 to 190 °C,"OC[C@H]1O[C@@H](n2cnc3c(N[C@H]4CCN(c5cc(C(F)(F)F)ccn5)C4)ncnc32)[C@H](O)[C@@H]1O [Example 10, (2R,3R,4S,5R)-5-hydroxymethyl-2-[6-[1-(4-trifluoromethylpyridin-2-yl)-pyrrolidin-3(S)-ylamino]-purin-9-yl]tetrahydrofuran-3,4-diol]"
9,231 to 233 °C,"CSc1ccc(N2CC[C@H](Nc3ncnc4c3ncn4[C@@H]3O[C@H](CO)[C@@H](O)[C@H]3O)C2)nc1 [Example 19, (2R,3R,4S,5R)-5-hydroxymethyl-2-[6-[1-(5-methylmercaptopyridin-2-yl)-pyrrolidin-3(S)-ylamino]-purin-9-yl]tetrahydrofuran-3,4-diol]"
10,180 to 182 °C,"OC[C@H]1C[C@@H](n2cnc3c(N[C@H]4CCN(c5cc(Cl)ncn5)C4)ncnc32)[C@H](O)[C@@H]1O [Example 45, (1R,2S,3R,5R)-3-[6-[1-(6-chloropyrimidin-4-yl)pyrrolidin-3(S)-ylamino]-purin-9-yl]-5-hydroxymethylcyclopentane-1,2-diol]"
11,230 to 232 °C,"O=[N+]([O-])c1ccc(N2CC[C@H](Nc3ncnc4c3ncn4[C@@H]3O[C@H](CO)[C@@H](O)[C@H]3O)C2)cc1 [Example 12, (2R,3R,4S,5R)-5-hydroxymethyl-2-(6-(1-(4-nitrophenyl)-pyrrolidin-3(S)-ylamino)-purin-9-yl) tetrahydrofuran-3,4-diol]"
12,135 to 138 °C,"OC[C@H]1C[C@@H](n2cnc3c(N[C@H]4CCN(c5cnc6ccccc6c5)C4)ncnc32)[C@H](O)[C@@H]1O [Example 36, (1R,2S,3R,5R)-5-hydroxymethyl-3-[6-[1-(quinolin-3-yl)pyrrolidin-3(S)-ylamino]-purin-9-yl]cyclopentane-1,2-diol]"
13,166 °C (dec.),"OC[C@H]1C[C@@H](n2cnc3c(N[C@@H]4CCNC4)ncnc32)[C@H](O)[C@@H]1O [Example 28, (1R,2S,3R,5R)-5-hydroxymethyl-3-[6-((3R)-pyrrolidin-3-ylamino)-purin-9-yl]cyclopentane-1,2-diol]"
14,118 to 120 °C,"COC[C@H]1C[C@@H](n2cnc3c(N[C@H]4CCN(c5cc(OC)ncn5)C4)ncnc32)[C@H](O)[C@@H]1O [Example 48, (1R,2S,3R,5R)-5-methoxymethyl-3-[6-[1-(6-methoxypyrimidin-4-yl)pyrrolidin-3(S)-ylamino]-purin-9-yl]cyclopentane-1,2-diol]"
15,166 to 170 °C,"OC[C@H]1O[C@@H](n2cnc3c(N[C@@H]4CCN(c5ccc(C(F)(F)F)cn5)C4)ncnc32)[C@H](O)[C@@H]1O (hydrate or solvate) [Example 4, (2R,3R,4S,5R)-5-hydroxymethyl-2-[6-[1-(5-trifluoromethylpyridin-2-yl)-pyrrolidin-3(R)-ylamino]purin-9-yl]tetrahydrofuran-3,4-diol]"
16,154 to 156 °C,"OC[C@H]1O[C@@H](n2cnc3c(N[C@H]4CCN(c5ccc(Cl)cn5)C4)ncnc32)[C@H](O)[C@@H]1O [Example 8, (2R,3R,4S,5R)-5-hydroxymethyl-2-[6-[1-(5-chloropyridin-2-yl)-pyrrolidin-3(S)-ylamino]-purin-9-yl]-tetrahydrofuran-3,4-diol]"
17,121 to 124 °C,"OC[C@H]1O[C@@H](n2cnc3c(N[C@H]4CCN(c5ccc(Cl)cc5)C4)ncnc32)[C@H](O)[C@@H]1O [Example 16, (2R,3R,4S,5R)-5-hydroxymethyl-2-[6-[1-(4-chlorophenyl)-pyrrolidin-3(S)-ylamino]-purin-9-yl]-tetrahydrofuran-3,4-diol]"
18,106 °C,"COC[C@H]1C[C@@H](n2cnc3c(N[C@H]4CCN(c5ccccc5)C4)ncnc32)[C@H](O)[C@@H]1O [Example 58, (1R,2S,3R,5R)-5-methoxymethyl-3-[6-[1-phenylpyrrolidin-3-(S)-ylamino]-purin-9-yl]cyclopentan-1,2-diol]"
19,157 to 158 °C,"CC(C)OC[C@H]1C[C@@H](n2cnc3c(N[C@H]4CCN(c5ccc(C(F)(F)F)cn5)C4)ncnc32)[C@H](O)[C@@H]1O [Example 49, (1R,2S,3R,5R)-5-isopropoxymethyl-3-[6-[1-(5-trifluoromethylpyridin2-yl)pyrrolidin-3(S)-ylamino]-purin-9-yl]cyclopentane-1,2-diol]"
20,113 to 116 °C,"OC[C@H]1O[C@@H](n2cnc3c(NC4CCCN(c5ccc(C(F)(F)F)cn5)C4)ncnc32)[C@H](O)[C@@H]1O (stereo partly drawn) [Example 13, (2R,3R,4S,5R)-5-hydroxymethyl-2-[6-(5′-trifluoromethyl-3,4,5,6-tetrahydro-2H-[1,2′]-bipyridinyl-3-ylamino)-purin-9-yl]tetrahydrofuran-3,4-diol]"
